Data on six molecules can be found in publication PMC11694514, “Structural and kinetic characterization of DUSP5 with a Di-phosphorylated tripeptide substrate from the ERK activation loop” (Frontiers in chemical biology, 2024).

In assay [1] the target is T1, DUSP5pdWT (Homo sapiens, UniProt Q16690).
T1 sequence (Q16690 178-319 limits assumed): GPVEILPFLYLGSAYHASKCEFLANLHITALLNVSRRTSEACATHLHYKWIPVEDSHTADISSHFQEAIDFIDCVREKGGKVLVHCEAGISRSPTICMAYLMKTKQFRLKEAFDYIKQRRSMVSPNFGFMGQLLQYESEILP
The experiment in a line: Steady state inhibition of pNPP hydrolysis by tripeptides. As to conditions: for Ki: peptide as inhibitor of pNPP hydrolysis. The class given is biochemical. Further details: The Dusp5 phosphatase domain gene, both wild type (WT; DUSP5pdWT; used for kinetic studies); inferred from the Nickel NTA purification), with additional N-terminal amino acids (N); made in house.

Another assay deals with T2, DUSPpdWT (Homo sapiens, UniProt Q16690).
T2 construct: The Dusp5 phosphatase domain gene, both wild type (WT; DUSP5pdWT; used for kinetic studies); inferred from the Nickel NTA purification), with additional N-terminal amino acids (N); made in house
T2 sequence (Q16690 178-319 limits assumed): T1 sequence (Q16690 178-319 limits assumed)
The experiment in a line: 31P NMR monitoring of tripeptide hydrolysis. It is filed as biochemical. The procedure:
Hydrolysis of the pThr-Glu-pTyr peptide was monitored using ^31P 1D NMR and a Varian 500 MHz spectrometer equipped with a broad band probe. 1 mM of peptide was incubated with 100 μM of DUSPpdWT protein for 3 min, and spectra were collected at 25°C. See Figure 2 and, for a time course, Supplementary Figure S3.

A further assay has as its target PTPase. The conditions noted are these: substrate PNPP, ref Deng et al. (2002), cited from earlier work.
In assay [2] the target is T1, DUSP5pdWT. The experiment in a line: Steady state inhibition of pNPP hydrolysis by vanadate and phosphate. As to conditions: for inhibition pattern / Ki (Kis): pNPP substrate; for Ki (Kis): Tris pH 7.5, 0.045 mM DTT, global kinetics analysis.
Method: All assays were carried out using pNPP as a substrate in the presence of DTT using a microplate reader and a total volume of 100 μL. Each assay contained an enzyme concentration of approximately 0.072 mg/mL (appropriately 3.13 μM DUSP5pdWT) which was left in a stock solution at about 1 h at 4°C before use. Each assay consisted of a reaction mixture in 100 mM tris-hydrochloride buffer containing 100 mM NaCl and 5.0 mM magnesium chloride (MgCl2) at pH 7.5. […] The kinetic parameters were measured in the presence of 0.045 mM DTT in the assay solution and the assay was started with the addition of pNPP.
For phosphate inhibition studies, the phosphate inhibitor concentrations used were 0.5; 1; 2; 5; 10 mM. […] The kinetic runs were repeated three times and the data were initial processed using excel and the global kinetics analysis was performed using GraphPad Prism 10.1.2. The errors provided in the analysis were calculated by the program.
For assay [3], the target named is Bacteriophage λ protein phosphatase. As to conditions: pH 7.8; substrate PNPP; Tris; ref Reiter et al. (2001); cited from earlier work.
Assay [4] concerns the target SHP-1 (domain containing protein tyrosine phosphatase-1). The conditions noted are these: pH 7.5; substrate PNPP; Tris; ref Heo et al. (2002); cited from earlier work.
Assay [5] has as its target Phosphotyrosyl protein phosphatases. The conditions noted are these: pH 5.0; substrate PNPP; Sodium acetate; ref Zhou et al. (1993); cited from earlier work.
In assay [6] the target is Acid phosphatases (Bovine liver). Further details: method as in Lawrence and Van Etten (1981). As to conditions: pH 5.5, substrate PNPP, Sodium acetate, ref Lawrence and Van Etten (1981); cited from earlier work.
The target of assay [7] is Human prostatic acid phosphatase. The conditions noted are these: pH 5.0; substrate PNPP; Sodium acetate; ref Zhou et al. (1993); cited from earlier work.
Assay [8] has as its target Bovine Low Molecular Weight Phosphotyrosyl Phosphatase. Further details: method as in Zhang et al. (1997). The conditions noted are these: Bovine heart, substrate PNPP, Sodium acetate, ref Zhang et al. (1997), cited from earlier work.
The next assay has as its target PTP1B. As to conditions: cited from earlier work.
Setting [9] is: Ki, global competitive model, Lineweaver-Burk fit (equation S2).
[10] abbreviates: Ki, global competitive model, Michaelis-Menten fit (Eq. 2).

Where two headings read alike, the source gives them in different places. Where a SMILES comes first, the peptide text is derived from it. [ ]: non-standard residue; d: D form. pY = N[C@@H](Cc1ccc(OP(=O)(O)O)cc1)C(=O)O; pT = C[C@@H](OP(=O)(O)O)[C@H](N)C(=O)O

The term Ki denotes the equilibrium dissociation constant of an inhibitor or competing ligand from its target. With `CC(=O)N[C@H](C(=O)N[C@@H](CCC(=O)O)C(=O)N[C@@H](Cc1ccc(OP(=O)(O)O)cc1)C(N)=O)[C@@H](C)O` [T-E-pY] (Ac-Thr-Glu-[pY]-NH2), the Ki on DUSP5pdWT [1] (setting [9]) was found to be 4800 µM; on DUSP5pdWT [1] (setting [10]) it was 4930 µM.

For the molecule `CC(=O)N[C@H](C(=O)N[C@@H](CCC(=O)O)C(=O)N[C@@H](Cc1ccc(OP(=O)(O)O)cc1)C(N)=O)[C@@H](C)OP(=O)(O)O` [pT-E-pY, Ac-pThr-Glu-pTyr-NH2] (Ac-[pT]-Glu-[pY]-NH2), the “conversion to orthophosphate (both phosphates cleaved)” value on DUSPpdWT (1 mM peptide, 100 μM DUSP5pdWT, 3 min, 25°C) is recorded as 100%. Besides, the “pT and pY peptides remaining (each)” value at DUSPpdWT (10-fold lower enzyme concentration, even after prolonged incubation) is recorded as “about 25%”. In addition, at DUSPpdWT (10-fold lower enzyme concentration, first timepoint after 3 min incubation), the conversion entry was “about 50%”. Besides, the results for the Ki on DUSP5pdWT [1] (setting [9]) and at DUSP5pdWT [1] (setting [10]) were 1220 µM and 1670 µM, respectively. For the same molecule, the kcat on DUSP5pdWT [1] (pNPP substrate, peptide as inhibitor, global competitive model, Michaelis-Menten fit (Eq. 2)) was 2.03 ± 0.07 × 10^−2 s^−1. Further, the “fold more potent binder” value on DUSP5pdWT [1] (relative to the pY monophosphorylated peptide) is “roughly 3 x”.

As to sodium vanadate, the inhibition constant (Ki) was 1.1 µM at PTPase (pH 5.5, Acetate); 1.2 µM on PTPase (pH 7.5, Tris); 0.7 µM in assay [3]; 9.3 µM in assay [4]; 24 µM in [5]; 2000 µM in [6]. Also, the inhibition constant Ki in assay [7] is 36 µM; in assay [8] (pH 5.0), 5.4 µM; in assay [8] (pH 7.5), 1 µM; on PTP1B (pH 5.5, substrate PNPP, Tris, ref Heo et al. (2002)) it was 410 µM; at PTP1B (pH 7.3, substrate FDP, HEPES, ref Huyer et al. (1997)) it was 0.38 µM; on PTP1B (pH 7.5, substrate PNPP, Tris, ref Heo et al. (2002)) it was 5.6 µM. The inhibition pattern result at DUSP5pdWT [2] was “competitive inhibitors”.

The Km is the concentration of substrate that gives half-maximal velocity. In the case of `O=[N+]([O-])c1ccc(OP(=O)(O)O)cc1` [pNPP, p-nitrophenol phosphate], the Km on DUSP5pdWT [2] (pH 7.5) was 8.02 mM.

Turning to `O=P(O)(O)O` [phosphate, sodium phosphate], the inhibition pattern entry is on record as “competitive inhibitors” against DUSP5pdWT [2] and “competitive inhibition pattern” on DUSP5pdWT [2] (listed as Phosphate). For the same molecule, the “Ki (Kis)” value at DUSP5pdWT [2] (listed as Phosphate) came to 17300 µM; at DUSP5pdWT [2] (listed as sodium phosphate), 17320 µM. Also, the inhibition constant (Ki) in assay [6] was 3000 µM; in assay [8] (pH 5.0) it was 2200 ± 0.4 µM; in assay [8] (pH 7.5) it was 6200 µM; on PTP1B (pH 7.0, substrate PNPP, 3,3-Dimethylglutarate, ref Zhang, Y.L. and Zhang, Z.Y. (1998)), 17000 µM.

As to `CC(=O)N[C@H](C(=O)N[C@@H](CCC(=O)O)C(=O)N[C@@H](Cc1ccc(O)cc1)C(N)=O)[C@@H](C)OP(=O)(O)O` [pT-E-Y] (Ac-[pT]-Glu-Tyr-NH2), the Ki was found to be 21900 µM at DUSP5pdWT [1] (global competitive model, Lineweaver-Burk fit (equation S2), read-out: Ki) and 15800 µM at DUSP5pdWT [1] (global competitive model, Michaelis-Menten fit (Eq. 2), read-out: Ki).
